Measured values reported in patent publication US20250034216A1, “STEREOSELECTIVE COVALENT LIGANDS FOR ONCOGENIC AND IMMUNOLOGICAL PROTEINS” (The Scripps Research Institute, priority 2021, published 2025).

What was measured:
Assay in all cases: IA-DTB cysteine engagement
Type in all cases: binding
HMOX2_C282 = biological target: T1, HMOX2_C282 (Homo sapiens, UniProt P30519); settings: 22Rv1 cells, relative to DMSO; for % engagement HMOX2_C282: 20 μM probe, 1 h; for % engagement HMOX2_282: 5 μM probe, 1 h (FIG. 5B)
T1 construct: endogenous in cells; host or cells: 22Rv1
T1 sequence (P30519 1-316): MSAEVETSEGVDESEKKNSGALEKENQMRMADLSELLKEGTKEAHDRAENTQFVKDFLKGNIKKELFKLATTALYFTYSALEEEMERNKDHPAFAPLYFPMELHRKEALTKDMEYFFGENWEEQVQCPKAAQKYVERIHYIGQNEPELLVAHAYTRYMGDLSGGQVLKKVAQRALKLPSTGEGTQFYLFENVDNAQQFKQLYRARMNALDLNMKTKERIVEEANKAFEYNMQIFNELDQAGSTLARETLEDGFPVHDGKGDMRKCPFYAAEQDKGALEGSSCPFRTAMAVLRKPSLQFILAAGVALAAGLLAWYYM
Method in brief: (§1)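 Cells were treated in situ with electrophilic probes, then lysed, and the lysates (2 mg/mL protein) were labeled with IA-DTB for 1 h at ambient temperature. After reduction, alkylation and trypsin digestion, labeled peptides were streptavidin-enriched, TMT-labeled and fractionated. Engagement ratios are probe vs DMSO reporter intensities, averaged across replicates.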

NT5DC2_C507 = biological target: T2, NT5DC2_C507 (Homo sapiens, UniProt Q9H857); settings: 22Rv1 cells, 20 μM probe, 1 h, relative to DMSO
T2 construct: endogenous in cells; host or cells: 22Rv1
T2 sequence (Q9H857 1-520): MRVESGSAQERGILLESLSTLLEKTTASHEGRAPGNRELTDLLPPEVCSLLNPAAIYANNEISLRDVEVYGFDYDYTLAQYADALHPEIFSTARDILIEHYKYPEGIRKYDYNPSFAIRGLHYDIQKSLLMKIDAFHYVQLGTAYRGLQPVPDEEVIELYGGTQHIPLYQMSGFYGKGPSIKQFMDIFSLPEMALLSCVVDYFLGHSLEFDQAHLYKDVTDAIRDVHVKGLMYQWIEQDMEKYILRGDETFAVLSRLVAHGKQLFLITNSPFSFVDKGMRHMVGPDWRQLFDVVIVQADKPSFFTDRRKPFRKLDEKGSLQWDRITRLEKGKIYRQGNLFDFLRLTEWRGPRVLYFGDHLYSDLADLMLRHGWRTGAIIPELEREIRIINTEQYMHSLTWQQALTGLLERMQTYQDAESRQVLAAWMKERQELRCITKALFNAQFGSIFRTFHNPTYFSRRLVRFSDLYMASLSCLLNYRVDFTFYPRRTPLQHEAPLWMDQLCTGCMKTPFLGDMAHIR
Method in brief: as §1

GCN1_C1095 = biological target: T3, GCN1_C1095 (Homo sapiens, UniProt Q92616); settings: 22Rv1 cells, 20 μM probe, 1 h, relative to DMSO
T3 construct: endogenous in cells; host or cells: 22Rv1
Method in brief: as §1

HSDL1_C265 = biological target: T4, HSDL1_C265 (Homo sapiens, UniProt Q3SXM5); settings: 22Rv1 cells, 20 μM probe, 1 h, relative to DMSO
T4 construct: endogenous in cells; host or cells: 22Rv1
T4 sequence (Q3SXM5 1-330): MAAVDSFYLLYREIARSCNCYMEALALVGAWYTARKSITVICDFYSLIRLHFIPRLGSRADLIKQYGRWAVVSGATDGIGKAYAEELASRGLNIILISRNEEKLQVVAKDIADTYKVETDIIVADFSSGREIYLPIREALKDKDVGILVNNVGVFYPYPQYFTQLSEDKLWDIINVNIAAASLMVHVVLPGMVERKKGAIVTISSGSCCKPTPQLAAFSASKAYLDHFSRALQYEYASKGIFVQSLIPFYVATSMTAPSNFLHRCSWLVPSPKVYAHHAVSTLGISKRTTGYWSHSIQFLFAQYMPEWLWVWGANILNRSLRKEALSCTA
Method in brief: as §1

LIMK1_C349 = biological target: T5, LIMK1_C349 (Homo sapiens, UniProt P53667); settings: 22Rv1 cells, relative to DMSO; for % engagement LIMK1_C349: 20 μM probe, 1 h; for % engagement LIMK1_349: 5 μM probe, 1 h (FIG. 5B)
T5 construct: endogenous in cells; host or cells: 22Rv1
Method in brief: as §1

T3 sequence (Q92616 whole entry): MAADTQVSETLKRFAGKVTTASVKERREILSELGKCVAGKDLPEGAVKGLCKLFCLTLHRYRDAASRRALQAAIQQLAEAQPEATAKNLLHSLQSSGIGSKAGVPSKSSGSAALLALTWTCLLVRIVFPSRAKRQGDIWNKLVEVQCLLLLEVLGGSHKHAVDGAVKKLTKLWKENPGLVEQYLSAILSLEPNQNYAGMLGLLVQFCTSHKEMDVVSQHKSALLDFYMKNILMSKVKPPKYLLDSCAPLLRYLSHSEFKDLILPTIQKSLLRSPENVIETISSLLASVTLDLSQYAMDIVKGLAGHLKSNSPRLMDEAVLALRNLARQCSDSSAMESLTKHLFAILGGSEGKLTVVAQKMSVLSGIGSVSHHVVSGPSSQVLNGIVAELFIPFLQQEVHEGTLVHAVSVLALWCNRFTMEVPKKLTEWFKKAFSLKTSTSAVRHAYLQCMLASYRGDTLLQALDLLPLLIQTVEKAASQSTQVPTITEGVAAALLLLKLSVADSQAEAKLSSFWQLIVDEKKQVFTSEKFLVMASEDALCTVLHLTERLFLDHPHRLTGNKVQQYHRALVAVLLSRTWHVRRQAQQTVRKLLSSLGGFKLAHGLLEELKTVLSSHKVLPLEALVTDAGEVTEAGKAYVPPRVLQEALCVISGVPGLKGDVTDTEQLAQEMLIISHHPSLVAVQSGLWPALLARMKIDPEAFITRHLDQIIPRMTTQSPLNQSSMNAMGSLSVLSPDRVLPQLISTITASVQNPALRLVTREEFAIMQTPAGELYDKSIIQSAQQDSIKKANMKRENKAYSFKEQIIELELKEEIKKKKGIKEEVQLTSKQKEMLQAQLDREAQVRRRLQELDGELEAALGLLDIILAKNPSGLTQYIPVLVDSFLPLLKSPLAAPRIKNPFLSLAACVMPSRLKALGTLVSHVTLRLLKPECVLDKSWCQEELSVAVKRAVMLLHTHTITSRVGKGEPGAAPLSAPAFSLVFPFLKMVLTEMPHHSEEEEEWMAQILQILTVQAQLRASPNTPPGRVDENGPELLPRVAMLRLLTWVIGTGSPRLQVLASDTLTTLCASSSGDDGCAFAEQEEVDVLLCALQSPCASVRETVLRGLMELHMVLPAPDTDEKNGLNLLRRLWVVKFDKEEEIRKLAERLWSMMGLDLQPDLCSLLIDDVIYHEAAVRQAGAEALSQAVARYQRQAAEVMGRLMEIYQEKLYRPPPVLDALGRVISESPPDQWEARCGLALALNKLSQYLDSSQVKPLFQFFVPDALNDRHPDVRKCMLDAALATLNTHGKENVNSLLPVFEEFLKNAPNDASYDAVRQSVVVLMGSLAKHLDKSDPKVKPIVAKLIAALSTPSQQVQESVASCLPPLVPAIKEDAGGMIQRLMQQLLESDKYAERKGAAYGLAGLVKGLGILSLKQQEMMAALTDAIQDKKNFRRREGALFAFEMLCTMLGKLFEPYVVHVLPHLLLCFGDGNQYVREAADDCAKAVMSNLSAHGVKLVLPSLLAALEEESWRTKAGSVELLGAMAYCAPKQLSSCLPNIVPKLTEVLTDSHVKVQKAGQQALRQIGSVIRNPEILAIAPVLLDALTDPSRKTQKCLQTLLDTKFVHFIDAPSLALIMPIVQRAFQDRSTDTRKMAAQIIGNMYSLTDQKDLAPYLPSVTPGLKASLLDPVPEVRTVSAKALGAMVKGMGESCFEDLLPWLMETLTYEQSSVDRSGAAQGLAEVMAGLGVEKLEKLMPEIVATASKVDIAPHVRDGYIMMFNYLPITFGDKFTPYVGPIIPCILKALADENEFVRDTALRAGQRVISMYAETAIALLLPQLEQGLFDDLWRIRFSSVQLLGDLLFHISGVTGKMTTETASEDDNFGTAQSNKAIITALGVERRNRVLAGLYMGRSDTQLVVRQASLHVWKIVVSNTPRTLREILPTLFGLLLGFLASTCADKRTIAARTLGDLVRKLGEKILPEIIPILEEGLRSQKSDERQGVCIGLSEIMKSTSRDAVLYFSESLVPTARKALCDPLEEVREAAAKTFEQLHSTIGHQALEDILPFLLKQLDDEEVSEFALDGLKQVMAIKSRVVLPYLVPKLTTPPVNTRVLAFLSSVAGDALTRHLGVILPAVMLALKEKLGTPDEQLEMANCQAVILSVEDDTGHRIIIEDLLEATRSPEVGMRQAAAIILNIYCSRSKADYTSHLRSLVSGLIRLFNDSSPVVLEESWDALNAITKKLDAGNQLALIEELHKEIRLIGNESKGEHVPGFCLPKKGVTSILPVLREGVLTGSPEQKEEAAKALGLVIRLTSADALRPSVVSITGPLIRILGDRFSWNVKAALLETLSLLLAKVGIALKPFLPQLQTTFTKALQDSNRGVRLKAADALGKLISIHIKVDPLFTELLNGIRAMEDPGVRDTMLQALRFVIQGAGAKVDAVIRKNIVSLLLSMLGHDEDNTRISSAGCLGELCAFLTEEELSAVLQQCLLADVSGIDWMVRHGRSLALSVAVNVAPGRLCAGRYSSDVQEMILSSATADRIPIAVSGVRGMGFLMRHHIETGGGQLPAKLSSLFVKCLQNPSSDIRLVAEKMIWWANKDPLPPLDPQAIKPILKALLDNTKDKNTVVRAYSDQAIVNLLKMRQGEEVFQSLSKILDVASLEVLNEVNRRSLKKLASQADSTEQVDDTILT
T5 sequence (P53667 whole entry): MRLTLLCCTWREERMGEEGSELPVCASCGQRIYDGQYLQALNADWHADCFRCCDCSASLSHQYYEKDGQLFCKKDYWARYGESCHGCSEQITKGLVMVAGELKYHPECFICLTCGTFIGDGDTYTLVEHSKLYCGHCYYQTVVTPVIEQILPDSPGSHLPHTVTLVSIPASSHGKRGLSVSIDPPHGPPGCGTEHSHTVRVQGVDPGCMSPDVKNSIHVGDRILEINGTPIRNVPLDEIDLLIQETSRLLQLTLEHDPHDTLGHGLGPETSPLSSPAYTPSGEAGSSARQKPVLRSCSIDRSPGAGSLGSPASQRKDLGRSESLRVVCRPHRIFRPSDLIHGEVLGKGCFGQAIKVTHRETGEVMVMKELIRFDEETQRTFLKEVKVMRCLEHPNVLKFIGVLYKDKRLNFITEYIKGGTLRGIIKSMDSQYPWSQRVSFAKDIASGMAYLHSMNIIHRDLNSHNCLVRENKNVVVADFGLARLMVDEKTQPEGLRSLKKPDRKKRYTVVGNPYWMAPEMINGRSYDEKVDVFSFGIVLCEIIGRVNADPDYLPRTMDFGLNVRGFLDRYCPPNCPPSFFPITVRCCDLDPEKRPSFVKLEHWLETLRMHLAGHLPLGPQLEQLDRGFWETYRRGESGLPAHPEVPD

Structure (SMILES)	% engagement HMOX2_C282 (HMOX2_C282) [%]	% engagement NT5DC2_C507 (NT5DC2_C507) [%]	% engagement GCN1_C1095 (GCN1_C1095) [%]	% engagement HSDL1_C265 (HSDL1_C265) [%]	% engagement LIMK1_C349 (LIMK1_C349) [%]	% engagement HMOX2_282 (HMOX2_C282) [%]	% engagement LIMK1_349 (LIMK1_C349) [%]
C=CC(=O)N1C[C@@H](c2ccc(Br)cc2)[C@H]1C(=O)Nc1cccc2cccnc12 [MY-1A, (2S,3R)-1-acryloyl-3-(4-bromophenyl)-N-(quinolin-8-yl)azetidine-2-carboxamide]	93.5	83.75	18.5	52	45.25	–	–
C=CC(=O)N1C[C@H](c2ccc(Br)cc2)[C@@H]1C(=O)Nc1cccc2cccnc12 [MY-1B, (2R,3S)-1-acryloyl-3-(4-bromophenyl)-N-(quinolin-8-yl)azetidine-2-carboxamide]	96.25	67.25	84	54	93	94.00	90.88
CC#CC(=O)N1C[C@H](c2ccc(Br)cc2)[C@@H]1C(=O)Nc1cccc2cccnc12 [MY-45B, (2R,3S)-3-(4-bromophenyl)-1-(but-2-ynoyl)-N-(quinolin-8-yl)azetidine-2-carboxamide]	–	–	–	–	–	92.13	−15.75

More lines, now with the values ahead:

% engagement HMOX2_C282 (HMOX2_C282) [%]	% engagement NT5DC2_C507 (NT5DC2_C507) [%]	% engagement GCN1_C1095 (GCN1_C1095) [%]	% engagement HSDL1_C265 (HSDL1_C265) [%]	% engagement LIMK1_C349 (LIMK1_C349) [%]	% engagement HMOX2_282 (HMOX2_C282) [%]	% engagement LIMK1_349 (LIMK1_C349) [%]	Structure (SMILES)
97.75	57.5	−7.5	82	43.25	–	–	C=CC(=O)N1C[C@H](c2ccc(Br)cc2)[C@H]1C(=O)Nc1cccc2cccnc12 [MY-3B, (2S,3S)-1-acryloyl-3-(4-bromophenyl)-N-(quinolin-8-yl)azetidine-2-carboxamide]
96.25	50.5	5	64.25	21.5	–	–	C=CC(=O)N1C[C@H](c2ccc(Br)cc2)[C@H]1C(=O)Nc1cccc2cccnc12 [MY-3A, (2S,3S)-1-acryloyl-3-(4-bromophenyl)-N-(quinolin-8-yl)azetidine-2-carboxamide]
